# Measurements from patent publication US20260306527A1, “PRMT INHIBITOR COMPOUNDS AND THE USES THEREOF” (Purdue Research Foundation, priority 2023, published 2026).
# Entries after “also recorded” stand apart in the source; their conditions may differ.
# Assays:
# PRMT3 [1] = test: selectivity of YD1113/YD1290 on PRMT panel, PRMT3; assay type: biochemical
# Method: (§1) The selectivity of compounds YD1113 and YD1290 on PRMTs were performed by Reaction Biology Corp.
# (§2) Next, the selectivity of YD1113 was investigated on a panel of PRMTs at 10 μM.
# (§3) After validating the benzyl urea moiety as an unconventional homocysteine mimic of SAH for PRMTs, it was hypothesized that incorporating the benzyl urea moiety into the original pan PRMT inhibitor II757 would build a potent bisubstrate inhibitor. […] To enable a stable tri-substitution, the sulfur atom with a nitrogen atom was replaced. YD1290 was synthesized following the reported methods 9, 15 and tested in a radioactivity assay for PRMTs (FIG. 6b).
# PRMT4 [2] = test: selectivity of YD1113/YD1290 on PRMT panel, PRMT4; assay type: biochemical
# Method: as §1, §2, §3
# PRMT3 [3] = test: SAHH-coupled fluorescence assay, inhibition of PRMT3; assay type: biochemical; conditions: read-out: IC50[μM] | PRMT3
# Method: A fluorescence-based SAHH-coupled assay was applied to study the inhibition activity of all synthesized compounds on PRMT 1 and 3.
# (§4) The PRMT3 methylation assay was performed under the following conditions in a final well volume of 100 μL: 20 mM Tris (pH=7.5), 0.01% Triton X-100, 5 μM SAHH, 0.25 μM PRMT3, 30 μM AdoMet, and 15 μM ThioGlo4. […] Fluorescence was monitored on a BMG CLARIOstar microplate reader with excitation 380 nm and emission 505 nm. Data were processed by using GraphPad Prism software 8.0. All experiments were performed in duplicate.
# (§5) Next, the inhibition activity of the library was investigated for five PRMT members from type I PRMTs.
# as §4, with “8.0.” for “8.0. All experiments were performed in duplicate.”
# PRMTs = conditions: cited from earlier work
# PRMT7 [4] = test: selectivity of YD1113 on PRMT panel, PRMT7; assay type: biochemical
# Method: as §1, §2
# PRMT8 = PRMT8 (Homo sapiens, UniProt Q9NR22); test: radioactive assay (Reaction Biology Corp.), inhibition of PRMT8; assay type: biochemical
# Sequence of PRMT8 (Q9NR22 whole entry, species assumed): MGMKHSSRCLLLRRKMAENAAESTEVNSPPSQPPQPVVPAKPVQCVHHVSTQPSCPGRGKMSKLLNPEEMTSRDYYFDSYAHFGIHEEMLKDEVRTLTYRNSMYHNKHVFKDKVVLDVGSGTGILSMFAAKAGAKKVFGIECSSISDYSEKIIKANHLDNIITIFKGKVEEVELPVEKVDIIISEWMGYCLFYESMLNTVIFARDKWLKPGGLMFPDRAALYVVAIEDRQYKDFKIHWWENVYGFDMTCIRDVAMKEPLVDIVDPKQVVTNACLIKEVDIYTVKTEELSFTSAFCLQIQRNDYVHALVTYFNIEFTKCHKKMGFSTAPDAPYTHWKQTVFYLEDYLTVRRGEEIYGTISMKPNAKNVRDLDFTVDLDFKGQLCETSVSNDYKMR
# Method: as §5
# (§6) The PRMT 4, 6 and 8 methylation assays were performed by Reaction Biology corp.
# PRMT1 [5] = biological target: T1, PRMT1 (Homo sapiens, UniProt Q99873); test: SAHH-coupled fluorescence assay, inhibition of PRMT1; assay type: biochemical
# T1 construct: made in house
# T1 sequence (Q99873 whole entry, species assumed): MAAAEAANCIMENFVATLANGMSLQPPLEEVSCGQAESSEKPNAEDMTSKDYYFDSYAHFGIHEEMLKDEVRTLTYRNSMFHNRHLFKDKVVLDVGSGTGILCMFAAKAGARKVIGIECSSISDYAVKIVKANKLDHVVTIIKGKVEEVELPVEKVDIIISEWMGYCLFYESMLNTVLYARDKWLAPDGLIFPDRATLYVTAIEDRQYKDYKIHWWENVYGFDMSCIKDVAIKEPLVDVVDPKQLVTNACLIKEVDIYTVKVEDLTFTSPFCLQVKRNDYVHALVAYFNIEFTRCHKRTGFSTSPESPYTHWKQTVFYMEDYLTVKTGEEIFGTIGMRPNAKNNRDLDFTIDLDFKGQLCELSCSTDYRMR
# Method in brief: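 PRMT1 (0.1 μM) was run with 10 μM AdoMet, 5 μM SAHH and 10 μM ThioGlo4 in 2.5 mM HEPES pH 7.0, 25 mM NaCl, 25 μM EDTA, 50 μM TCEP and 0.01% Triton X-100. Fluorescence (ex 400/em 465 nm) was monitored for 15 min. Assays were done in duplicate.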
# PRMT4 [6] = biological target: T2, PRMT4 (Homo sapiens, UniProt Q86X55); test: radioactive assay (Reaction Biology Corp.), inhibition of PRMT4; assay type: biochemical
# T2 sequence (Q86X55 1-608): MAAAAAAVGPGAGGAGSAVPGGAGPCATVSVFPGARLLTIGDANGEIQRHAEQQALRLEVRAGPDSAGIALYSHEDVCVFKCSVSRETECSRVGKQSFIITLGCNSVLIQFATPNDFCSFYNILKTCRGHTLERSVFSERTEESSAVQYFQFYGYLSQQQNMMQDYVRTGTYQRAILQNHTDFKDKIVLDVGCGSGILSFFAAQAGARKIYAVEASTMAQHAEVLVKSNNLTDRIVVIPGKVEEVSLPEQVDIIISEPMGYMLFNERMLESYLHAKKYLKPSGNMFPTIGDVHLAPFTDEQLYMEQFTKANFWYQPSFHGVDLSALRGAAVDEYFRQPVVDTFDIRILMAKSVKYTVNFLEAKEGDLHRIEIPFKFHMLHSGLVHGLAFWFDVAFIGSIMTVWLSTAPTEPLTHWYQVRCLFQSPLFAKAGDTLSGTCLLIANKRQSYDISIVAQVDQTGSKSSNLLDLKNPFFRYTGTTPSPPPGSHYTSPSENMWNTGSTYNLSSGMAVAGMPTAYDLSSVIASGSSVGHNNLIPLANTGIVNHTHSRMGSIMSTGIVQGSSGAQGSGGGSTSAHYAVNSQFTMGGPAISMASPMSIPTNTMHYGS
# Method: as §5, §6
# PRMT6 = PRMT6 (Homo sapiens, UniProt Q96LA8); test: radioactive assay (Reaction Biology Corp.), inhibition of PRMT6; assay type: biochemical
# Sequence of PRMT6 (Q96LA8 whole entry, species assumed): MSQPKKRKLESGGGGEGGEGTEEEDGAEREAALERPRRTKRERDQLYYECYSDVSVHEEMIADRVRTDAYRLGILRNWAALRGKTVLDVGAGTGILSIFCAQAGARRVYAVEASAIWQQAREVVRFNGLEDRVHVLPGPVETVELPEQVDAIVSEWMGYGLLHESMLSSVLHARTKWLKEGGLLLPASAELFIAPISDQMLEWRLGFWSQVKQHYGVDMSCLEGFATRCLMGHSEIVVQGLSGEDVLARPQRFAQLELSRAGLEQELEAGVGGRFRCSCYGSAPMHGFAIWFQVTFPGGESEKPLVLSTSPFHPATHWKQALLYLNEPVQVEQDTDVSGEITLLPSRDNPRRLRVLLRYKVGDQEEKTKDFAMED
# Method: as §5, §6
# PRMT3 [7] = biological target: T3, PRMT3 (Homo sapiens, UniProt O60678); test: SAHH-coupled fluorescence assay, inhibition of PRMT3; assay type: biochemical; parameters: PRMT3 (residues 211-531) was cloned into the pET28a-MHL expression vector; tag of the pET28a-MHL vector (not described); made in house; host or cells: Escherichia coli BL21(DE3)
# T3 sequence (O60678 211-531): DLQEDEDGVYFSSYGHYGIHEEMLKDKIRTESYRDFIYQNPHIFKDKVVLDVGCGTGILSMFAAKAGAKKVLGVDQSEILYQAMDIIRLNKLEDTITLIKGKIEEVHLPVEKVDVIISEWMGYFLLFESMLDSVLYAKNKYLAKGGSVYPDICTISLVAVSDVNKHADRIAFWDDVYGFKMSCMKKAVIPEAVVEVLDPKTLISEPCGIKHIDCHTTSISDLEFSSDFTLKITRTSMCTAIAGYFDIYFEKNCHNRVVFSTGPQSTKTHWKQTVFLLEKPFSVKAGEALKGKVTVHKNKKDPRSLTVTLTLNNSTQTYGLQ
# Method in brief: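 Coupled SAHH/ThioGlo4 fluorescence read-out (ex 380 nm, em 505 nm) of PRMT3 (0.25 μM) methylation with 30 μM AdoMet and 5 μM SAHH. Buffer was 20 mM Tris pH 7.5 with 0.01% Triton X-100. Run in duplicate.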
# PRMT4/7 = conditions: previously reported; cited from earlier work
# PRMT 5/7 = conditions: cited from earlier work
# DOT1L = conditions: cited from earlier work
# PRMT3 [8] = biological target: T3, PRMT3; test: thermal shift assay PRMT3; assay type: binding; parameters: PRMT3 (residues 211-531) was cloned into the pET28a-MHL expression vector; tag of the pET28a-MHL vector (not described); made in house; host or cells: Escherichia coli BL21(DE3); conditions: 100 μM compound, 20 μM protein
# Method: (§7) The fluorescence-based thermal shift assay was performed using a StepOne plus qPCR instrument (Thermal Fisher). For PRMT1, 10 μM of protein was mixed with 2× sypro orange and DMSO, or 100 μM SAM, or 100 μM YD1113, or 100 μM YD1290 in a buffer consisting of 2.5 mM HEPES (pH=7.0), 25 mM NaCl, 25 μM EDTA, 50 μM TCEP, 0.01% Triton X-100. For PRMT3, 20 μM of protein was mixed with 2× sypro orange and DMSO, or 100 μM SAM, or 100 μM YD1113, or 100 μM YD1290 in a buffer consisting of 20 mM Tris (pH=7.5), 0.01% Triton X-100. For PRMT4, 20 μM of protein was mixed with 2× sypro orange and DMSO, or 100 μM SAM, or 100 μM YD1113, or 100 μM YD1290 in a buffer consisting of 20 mM bicine (pH=8.5), 0.01% Triton X-100. All samples were heated from 25° C. to 75° C. at an increased rate of 0.5° C. per minute. Protein denaturation was monitored by the increased fluorescence signal of Sypro Orange, which captures exposed hydrophobic residues during thermal unfolding. The recorded curves were analyzed by the software StepOne plus and plotted in GraphPad Prism 8 software.
# (§8) Next, the thermal shift assay (TSA) was conducted as an orthogonal method to examine the effects of YD1290 on the thermal stability of PRMT1, 3, and 4 (Figure S1).
# PRMT4 [9] = biological target: T4, PRMT4 (Homo sapiens, UniProt Q86X55); test: thermal shift assay PRMT4; assay type: binding; conditions: 100 μM compound, 20 μM protein
# T4 construct: PRMT4 (residues 140-480) was cloned into the pFBOH-MHL vector; tag of the pFBOH-MHL vector (poly-His implied by Ni-NTA purification; not described); made in house; host or cells: Sf9 insect cells
# Method: as §7, §8
# PRMT1 [10] = biological target: T1, PRMT1; test: thermal shift assay PRMT1; assay type: binding; conditions: 100 μM compound, 10 μM protein
# Method: as §7, §8
# PRMT7 [11] = biological target: PRMT7 (Homo sapiens, UniProt Q9NVM4); conditions: cited from earlier work
# Sequence of PRMT7 (Homo sapiens, UniProt Q9NVM4) (Q9NVM4 whole entry, species assumed): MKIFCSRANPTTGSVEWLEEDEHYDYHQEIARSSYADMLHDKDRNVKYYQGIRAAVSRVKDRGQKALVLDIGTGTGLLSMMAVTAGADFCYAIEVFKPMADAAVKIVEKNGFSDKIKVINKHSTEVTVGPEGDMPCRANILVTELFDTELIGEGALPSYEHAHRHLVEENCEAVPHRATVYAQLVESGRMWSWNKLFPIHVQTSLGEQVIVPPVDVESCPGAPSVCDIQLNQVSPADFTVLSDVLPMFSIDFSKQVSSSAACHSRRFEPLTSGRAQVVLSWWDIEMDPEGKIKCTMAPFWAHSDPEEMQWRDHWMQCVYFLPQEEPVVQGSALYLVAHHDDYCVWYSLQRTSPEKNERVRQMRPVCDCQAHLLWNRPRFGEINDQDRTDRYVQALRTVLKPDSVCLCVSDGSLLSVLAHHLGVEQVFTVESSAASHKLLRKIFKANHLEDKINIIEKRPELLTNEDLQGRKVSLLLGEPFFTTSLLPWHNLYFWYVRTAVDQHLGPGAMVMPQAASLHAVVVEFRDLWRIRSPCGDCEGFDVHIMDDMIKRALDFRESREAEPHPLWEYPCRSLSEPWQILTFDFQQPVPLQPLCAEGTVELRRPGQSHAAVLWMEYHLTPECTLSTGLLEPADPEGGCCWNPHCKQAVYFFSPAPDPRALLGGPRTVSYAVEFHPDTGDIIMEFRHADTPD
# PRMT4/5 = test: inhibition of PRMT4/5 (figure legend); assay type: biochemical
smiles,measurement,setting,value
N=C(NCCCSC[C@H]1O[C@@H](n2cnc3c(N)ncnc32)[C@H](O)[C@@H]1O)Nc1cccc(Br)c1 [Compound 5f],IC50,PRMT3 [1],321 nM
same,IC50,PRMT4 [2],5.05 nM
same,IC50,PRMT3 [3],2.2 ± 0.29 µM
same,inhibition of all PRMTs,PRMTs,broad and potent inhibition to all PRMTs
same,IC50,PRMT7 [4],555 nM
same,inhibition at 10 µM,PRMT8,100%
same,inhibition at 10 µM,PRMT1 [5],94%
same,IC50,PRMT1 [5]; read-out: IC50[μM] | PRMT1,0.08 ± 0.016 µM
same,inhibition at 10 µM,PRMT4 [6],100%
same,inhibition at 10 µM,PRMT6,100%
same,inhibition at 10 µM,PRMT3 [7],68%
Nc1ncnc2c1ncn2[C@@H]1O[C@H](CSCCCNCc2cccc(-c3ccc(Cl)cc3)c2)[C@@H](O)[C@H]1O [Compound 10m],inhibition at 10 µM,PRMT8,73%
same,PRMT4/7 inhibition,PRMT4/7,potent PRMT4/7 inhibitor
same,inhibition at 10 µM,PRMT1 [5],65%
same,PRMT4 inhibition,PRMT4 [6],more potent PRMT4 inhibition activity than SGC8158
same,inhibition at 10 µM,PRMT4 [6],99%
same,inhibition at 10 µM,PRMT6,46%
same,inhibition at 10 µM,PRMT3 [7],22%
CCNC(=O)NCCSC[C@H]1O[C@@H](n2cnc3c(N)ncnc32)[C@H](O)[C@@H]1O [DS-437],PRMT 5/7 inhibition,PRMT 5/7,dual inhibition to PRMT 5/7
CC(C)N(CCCNC(=O)Nc1ccc(C(C)(C)C)cc1)C[C@H]1O[C@@H](n2ccc3c(N)ncnc32)[C@H](O)[C@@H]1O [EPZ004777],selectivity for DOT1L,DOT1L,high selectivity
"C[S+](CC[C@H](N)C(=O)O)C[C@H]1O[C@@H](n2cnc3c(N)ncnc32)[C@H](O)[C@@H]1O (stereo partly drawn) [SAM, S-adenosyl-L-methionine, reference compound]",ΔTm PRMT3,PRMT3 [8],+1.1 °C
same,ΔTm PRMT4,PRMT4 [9],+1.9 °C
same,ΔTm PRMT1,PRMT1 [10],+1.6 °C
Nc1ncnc2c1ncn2C1OC(CSCCCCNCc2cccc(-c3ccc(Cl)cc3)c2)C(O)C1O (stereo not shown) [SGC8158],PRMT7 inhibition,PRMT7 [11],selectively inhibits PRMT7; also recorded: selective PRMT7 inhibition; also recorded: selective PRMT7 inhibitor
CC(CN(CCCN)C[C@H]1O[C@@H](n2cnc3c(N)ncnc32)[C@H](O)[C@@H]1O)NC(=O)NCc1ccccc1 (stereo partly shown) [YD1288],PRMT4/5 inhibition,PRMT4/5,dual selective and potent PRMT4/5 inhibitor
